Values joined by “and” are separate entries in the source; they are usually repeats but may differ in a detail not shown here. Equal values may be shown once. Marks after values point to notes of the source that are not given here. Non-standard residues stand in square brackets, D forms with d. Residues, ends and D or L forms follow the SMILES beside them. *: point of attachment. Asu = N[C@@H](CCCCCC(=O)O)C(=O)O; NHOH = ON*
Tests used:
HDAC1 [1] = target: T1, HDAC1 (Homo sapiens, UniProt Q13547); assay: HDAC inhibition assay (fluorogenic, Ac-Leu-Gly-Lys(Ac)-AMC); format: biochemical; settings: for HDAC1 dose-response data (relative enzyme activity), Fig. 6 + S. Fig. 10: duplicate columns
T1 construct: HDAC1 (full length, C-terminal His tag, C-terminal FLAG tag, BPS Bioscience, cat. #: 50051); FLAG (C); purchased BPS Bioscience 50051

HDAC2 = target: T2, HDAC2 (Homo sapiens, UniProt Q92769); assay: as above; format: biochemical; settings: for HDAC2 dose-response data (relative enzyme activity), Fig. 6 + S. Fig. 10: duplicate columns
T2 construct: HDAC2 (full length, C-terminal His tag, BPS Bioscience, cat. #: 50002); purchased BPS Bioscience 50002

HDAC3/NCoR2 [2] = target: T3, HDAC3/NCoR2 (Homo sapiens, UniProt O15379); assay: as above; format: biochemical; settings: for HDAC3 dose-response data (relative enzyme activity), Fig. 6 + S. Fig. 10: duplicate columns
T3 construct: HDAC3/NCoR2 (full length, C-terminal His tag, NCoR2 N-terminal GST tag); purchased BPS Bioscience 50003

HDAC6 = target: T4, HDAC6 (Homo sapiens, UniProt Q9UBN7); assay: as above; format: biochemical; settings: HDAC6, replicates
T4 construct: HDAC6 (full length, BPS Bioscience, cat. #: 50056); purchased BPS Bioscience 50056
T4 sequence (Q9UBN7 1-1215): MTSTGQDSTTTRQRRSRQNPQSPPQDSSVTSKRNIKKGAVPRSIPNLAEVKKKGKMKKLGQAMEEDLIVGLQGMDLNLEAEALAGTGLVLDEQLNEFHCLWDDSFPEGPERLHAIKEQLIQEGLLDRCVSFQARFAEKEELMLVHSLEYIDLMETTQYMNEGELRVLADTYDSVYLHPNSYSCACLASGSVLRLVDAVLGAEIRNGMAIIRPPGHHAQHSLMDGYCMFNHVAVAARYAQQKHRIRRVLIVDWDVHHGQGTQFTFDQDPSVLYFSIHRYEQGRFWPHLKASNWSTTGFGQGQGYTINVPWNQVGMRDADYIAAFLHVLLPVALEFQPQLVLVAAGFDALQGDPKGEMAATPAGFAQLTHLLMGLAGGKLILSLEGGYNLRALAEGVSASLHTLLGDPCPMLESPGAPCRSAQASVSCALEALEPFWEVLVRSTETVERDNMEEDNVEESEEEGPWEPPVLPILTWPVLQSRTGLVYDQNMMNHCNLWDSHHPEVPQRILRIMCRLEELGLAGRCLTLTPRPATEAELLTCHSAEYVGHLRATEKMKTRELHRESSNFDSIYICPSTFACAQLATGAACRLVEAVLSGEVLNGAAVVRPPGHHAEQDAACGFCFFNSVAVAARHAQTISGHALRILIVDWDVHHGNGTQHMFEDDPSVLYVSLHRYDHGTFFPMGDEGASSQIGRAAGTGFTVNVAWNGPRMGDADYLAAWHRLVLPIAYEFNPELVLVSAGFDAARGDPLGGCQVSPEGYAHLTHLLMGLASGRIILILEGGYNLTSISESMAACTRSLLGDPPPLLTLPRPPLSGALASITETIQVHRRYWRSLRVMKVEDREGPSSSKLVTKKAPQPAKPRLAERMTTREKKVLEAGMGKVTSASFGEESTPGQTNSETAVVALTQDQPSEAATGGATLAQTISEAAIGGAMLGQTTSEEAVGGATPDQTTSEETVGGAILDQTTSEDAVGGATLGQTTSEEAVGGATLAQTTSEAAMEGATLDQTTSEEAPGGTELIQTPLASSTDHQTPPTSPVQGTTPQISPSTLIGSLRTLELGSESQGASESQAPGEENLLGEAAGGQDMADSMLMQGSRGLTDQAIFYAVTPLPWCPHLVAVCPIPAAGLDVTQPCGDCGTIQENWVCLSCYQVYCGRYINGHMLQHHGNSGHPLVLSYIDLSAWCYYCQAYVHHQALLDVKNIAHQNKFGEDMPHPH

HDAC3/NCoR2 [3] = target: T3, HDAC3/NCoR2; assay: Recombinant HDAC µSPOT microarray binding assay
HDAC8 = target: T5, HDAC8 (Homo sapiens, UniProt Q9BY41); assay: HDAC inhibition assay (fluorogenic, Ac-Leu-Gly-Lys(Tfa)-AMC); format: biochemical; settings: for HDAC8 dose-response data (relative enzyme activity, replicate values), Fig. 6 + S. Fig. 10: two replicate columns per inhibitor; for HDAC8 dose-response data (relative enzyme activity), Fig. 6 + S. Fig. 10: duplicate columns
T5 construct: HDAC8 (full length, C-terminal His tag, BPS Bioscience, cat. #: 50008); purchased BPS Bioscience 50008
T5 sequence (Q9BY41 1-377): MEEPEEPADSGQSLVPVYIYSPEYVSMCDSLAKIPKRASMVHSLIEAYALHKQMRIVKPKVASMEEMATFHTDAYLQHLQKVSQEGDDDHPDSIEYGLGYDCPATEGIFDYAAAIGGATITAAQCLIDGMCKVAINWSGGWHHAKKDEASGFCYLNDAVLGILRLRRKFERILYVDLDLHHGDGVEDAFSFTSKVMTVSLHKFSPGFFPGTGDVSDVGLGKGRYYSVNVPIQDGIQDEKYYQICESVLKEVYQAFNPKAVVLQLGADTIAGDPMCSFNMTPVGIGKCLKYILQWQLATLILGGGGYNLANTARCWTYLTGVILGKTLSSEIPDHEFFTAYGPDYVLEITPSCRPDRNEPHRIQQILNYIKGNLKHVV

HDAC1 [4] = target: T1, HDAC1; assay: Recombinant HDAC µSPOT microarray binding assay
[5] = log[inhibitor(M)] -10,5850266520292*, whole line marked with asterisks

T1 sequence (Q13547 whole entry): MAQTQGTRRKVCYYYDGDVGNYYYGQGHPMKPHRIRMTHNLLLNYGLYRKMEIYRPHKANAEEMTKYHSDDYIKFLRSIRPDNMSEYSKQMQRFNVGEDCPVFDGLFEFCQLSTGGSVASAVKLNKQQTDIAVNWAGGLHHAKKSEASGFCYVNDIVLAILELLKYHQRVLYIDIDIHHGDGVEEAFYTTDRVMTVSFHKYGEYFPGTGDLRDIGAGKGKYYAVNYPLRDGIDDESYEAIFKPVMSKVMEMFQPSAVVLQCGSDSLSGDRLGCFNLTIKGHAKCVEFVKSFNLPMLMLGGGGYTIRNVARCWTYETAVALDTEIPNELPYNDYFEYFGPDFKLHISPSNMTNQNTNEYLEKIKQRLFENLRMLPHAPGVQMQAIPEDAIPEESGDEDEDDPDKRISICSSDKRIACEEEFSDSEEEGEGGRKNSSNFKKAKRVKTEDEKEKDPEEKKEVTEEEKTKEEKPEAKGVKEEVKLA
T3 sequence (O15379 whole entry): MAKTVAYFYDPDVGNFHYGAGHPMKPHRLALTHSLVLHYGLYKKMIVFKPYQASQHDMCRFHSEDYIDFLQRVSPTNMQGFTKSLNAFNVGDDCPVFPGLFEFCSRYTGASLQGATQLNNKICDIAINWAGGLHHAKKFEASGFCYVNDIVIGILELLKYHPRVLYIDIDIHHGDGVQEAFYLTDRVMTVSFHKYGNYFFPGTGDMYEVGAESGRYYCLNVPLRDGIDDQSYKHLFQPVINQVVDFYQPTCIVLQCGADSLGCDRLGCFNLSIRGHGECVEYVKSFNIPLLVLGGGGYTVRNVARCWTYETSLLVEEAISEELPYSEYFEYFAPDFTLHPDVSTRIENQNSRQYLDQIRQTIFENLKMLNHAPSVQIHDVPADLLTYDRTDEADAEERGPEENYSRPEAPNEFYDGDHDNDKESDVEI
T3 sequence (Q9Y618 389-480 partner limits assumed): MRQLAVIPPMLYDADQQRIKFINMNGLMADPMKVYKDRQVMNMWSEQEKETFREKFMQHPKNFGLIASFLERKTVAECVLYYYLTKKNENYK
T2 sequence (Q92769 whole entry): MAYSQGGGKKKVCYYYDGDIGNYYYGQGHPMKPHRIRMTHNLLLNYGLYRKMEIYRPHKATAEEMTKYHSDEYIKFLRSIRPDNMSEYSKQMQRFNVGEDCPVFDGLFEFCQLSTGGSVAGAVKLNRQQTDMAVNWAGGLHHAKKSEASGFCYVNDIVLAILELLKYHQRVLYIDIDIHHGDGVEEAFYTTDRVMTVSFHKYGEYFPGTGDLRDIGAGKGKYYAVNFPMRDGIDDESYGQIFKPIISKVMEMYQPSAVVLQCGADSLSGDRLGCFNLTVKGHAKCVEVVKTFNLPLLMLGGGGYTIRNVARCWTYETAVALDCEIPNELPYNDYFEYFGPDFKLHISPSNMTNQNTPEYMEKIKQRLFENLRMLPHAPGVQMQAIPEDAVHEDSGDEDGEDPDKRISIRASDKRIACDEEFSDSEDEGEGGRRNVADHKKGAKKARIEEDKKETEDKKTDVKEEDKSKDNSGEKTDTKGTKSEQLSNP

CC(=O)N[C@@H](C)C(=O)N[C@@H](CCCNC(=N)N)C(=O)N[C@@H](CCCCN)C(=O)N[C@@H](CO)C(=O)N[C@H](C(=O)NCC(=O)NCC(=O)N[C@@H](CCCCN)C(=O)N[C@@H](C)C(=O)N1CCC[C@H]1C(=O)N[C@@H](CCCNC(=N)N)C(=O)N[C@@H](CCCCCC(=O)NO)C(=O)N[C@@H](CCC(N)=O)C(=O)N[C@@H](CC(C)C)C(=O)N[C@@H](C)C(=O)N[C@H](C(=O)N[C@@H](Cc1c[nH]c2ccccc12)C(N)=O)[C@@H](C)O)[C@@H](C)O [13a] (Ac-ARKSTGGKAPR[Asu](NHOH)QLATW-NH2)
Ki (HDAC1 [1]): 17.9 ± 0.4 nM
HDAC1 dose-response data (relative enzyme activity), Fig. 6 + S. Fig. 10 (HDAC1 [1]; log[inhibitor(M)] -5): 5.502 and 6.317
HDAC1 dose-response data (relative enzyme activity), Fig. 6 + S. Fig. 10 (HDAC1 [1]; log[inhibitor(M)] -5.69897): 16.4811 and 18.8712
HDAC1 dose-response data (relative enzyme activity), Fig. 6 + S. Fig. 10 (HDAC1 [1]; log[inhibitor(M)] -6.39794): 32.4053 and 35.9654
HDAC1 dose-response data (relative enzyme activity), Fig. 6 + S. Fig. 10 (HDAC1 [1]; log[inhibitor(M)] -7.09691): 44.2666 and 47.9606
HDAC1 dose-response data (relative enzyme activity), Fig. 6 + S. Fig. 10 (HDAC1 [1]; log[inhibitor(M)] -7.79588): 60.5299 and 62.3252
HDAC1 dose-response data (relative enzyme activity), Fig. 6 + S. Fig. 10 (HDAC1 [1]; log[inhibitor(M)] -8.49485): 80.9321 and 81.9464
HDAC1 dose-response data (relative enzyme activity), Fig. 6 + S. Fig. 10 (HDAC1 [1]; log[inhibitor(M)] -9.19382): 95.5469 and 95.3965
HDAC1 dose-response data (relative enzyme activity), Fig. 6 + S. Fig. 10 (HDAC1 [1]; log[inhibitor(M)] -9.89279): 98.1308 and 82.1941
HDAC1 dose-response data (relative enzyme activity), Fig. 6 + S. Fig. 10 (HDAC1 [1]; [5]): 98,3704548* and 94,2568861*
HDAC2 dose-response data (relative enzyme activity), Fig. 6 + S. Fig. 10 (HDAC2; log[inhibitor(M)] -5): 9.3053 and 9.139
HDAC2 dose-response data (relative enzyme activity), Fig. 6 + S. Fig. 10 (HDAC2; log[inhibitor(M)] -5.69897): 27.8438 and 26.8455
HDAC2 dose-response data (relative enzyme activity), Fig. 6 + S. Fig. 10 (HDAC2; log[inhibitor(M)] -7.79588): 88.6532 and 82.3131
HDAC2 dose-response data (relative enzyme activity), Fig. 6 + S. Fig. 10 (HDAC2; [5]): 104,855804* and 98,2337504*
Ki (HDAC2; resynthesized peptide in solution, Cheng-Prusoff, n = 2): 60 ± 1 nM
Ki (HDAC3/NCoR2 [2]): 2.14 ± 0.02 nM
HDAC3 dose-response data (relative enzyme activity), Fig. 6 + S. Fig. 10 (HDAC3/NCoR2 [2]; log[inhibitor(M)] -4.30103): 0.9488 and 1.386
HDAC3 dose-response data (relative enzyme activity), Fig. 6 + S. Fig. 10 (HDAC3/NCoR2 [2]; log[inhibitor(M)] -5): 3.154 and 2.6883
HDAC3 dose-response data (relative enzyme activity), Fig. 6 + S. Fig. 10 (HDAC3/NCoR2 [2]; log[inhibitor(M)] -5.69897): 8.657 and 8.271
HDAC3 dose-response data (relative enzyme activity), Fig. 6 + S. Fig. 10 (HDAC3/NCoR2 [2]; log[inhibitor(M)] -6.39794): 15.6479 and 15.4413
HDAC3 dose-response data (relative enzyme activity), Fig. 6 + S. Fig. 10 (HDAC3/NCoR2 [2]; log[inhibitor(M)] -7.09691): 23.7196 and 23.3659
HDAC3 dose-response data (relative enzyme activity), Fig. 6 + S. Fig. 10 (HDAC3/NCoR2 [2]; log[inhibitor(M)] -7.79588): 41.0048 and 43.3286
HDAC3 dose-response data (relative enzyme activity), Fig. 6 + S. Fig. 10 (HDAC3/NCoR2 [2]; log[inhibitor(M)] -8.49485): 70.4254 and 74.0708
HDAC3 dose-response data (relative enzyme activity), Fig. 6 + S. Fig. 10 (HDAC3/NCoR2 [2]; log[inhibitor(M)] -9.19382): 90.1455 and 92.6434
HDAC3 dose-response data (relative enzyme activity), Fig. 6 + S. Fig. 10 (HDAC3/NCoR2 [2]; log[inhibitor(M)] -9.89279): 95.7935 and 97.884
HDAC3 dose-response data (relative enzyme activity), Fig. 6 + S. Fig. 10 (HDAC3/NCoR2 [2]; [5]): 98,4914638* and 97,1472426*
selectivity for HDAC3 vs. HDACs 1 and 2 (HDAC3/NCoR2 [2]; resynthesized peptides, from Ki): > 8 fold
residual enzymatic activity relative to control wells (HDAC6; log[inhibitor(M)] -4.30103): -1.734 and 1.049
residual enzymatic activity relative to control wells (HDAC6; log[inhibitor(M)] -5): -1.228 and 1.2154
residual enzymatic activity relative to control wells (HDAC6; log[inhibitor(M)] -5.69897): 0.01806 and 2.993
residual enzymatic activity relative to control wells (HDAC6; log[inhibitor(M)] -6.39794): 4.479 and 8.186
residual enzymatic activity relative to control wells (HDAC6; log[inhibitor(M)] -7.09691): 18.6761 and 22.7019
residual enzymatic activity relative to control wells (HDAC6; log[inhibitor(M)] -7.79588): 46.5457 and 51.1177
residual enzymatic activity relative to control wells (HDAC6; log[inhibitor(M)] -8.49485): 65.89 and 75.8407
residual enzymatic activity relative to control wells (HDAC6; log[inhibitor(M)] -9.19382): 72.6813 and 83.6344
residual enzymatic activity relative to control wells (HDAC6; log[inhibitor(M)] -9.89279): 83.1572 and 99.4226
residual enzymatic activity relative to control wells (HDAC6; log[inhibitor(M)] -10.585): 85.7762 and 94.8721
EC50 (HDAC3/NCoR2 [3]): 4.17 nM
Ki (HDAC8): 5.1 ± 0.03 nM
HDAC8 dose-response data (relative enzyme activity, replicate values), Fig. 6 + S. Fig. 10 (HDAC8; Inhibitor conc [M] -8.49485 (log)): 71.9184 and 69.3811
HDAC8 dose-response data (relative enzyme activity, replicate values), Fig. 6 + S. Fig. 10 (HDAC8; Inhibitor conc [M] -9.19382 (log)): 90.9342 and 89.4061
HDAC8 dose-response data (relative enzyme activity, replicate values), Fig. 6 + S. Fig. 10 (HDAC8; Inhibitor conc [M] given as -7.09691 (log)): 21.0963 and 19.8616
HDAC8 dose-response data (relative enzyme activity, replicate values), Fig. 6 + S. Fig. 10 (HDAC8; Inhibitor conc [M] given as -7.79588 (log)): 40.3806 and 38.3863
HDAC8 dose-response data (relative enzyme activity, replicate values), Fig. 6 + S. Fig. 10 (HDAC8; Inhibitor conc [M] given as -9.89279 (log)): 99.1075 and 97.7
HDAC8 dose-response data (relative enzyme activity, replicate values), Fig. 6 + S. Fig. 10 (HDAC8; Inhibitor conc [M] given as -10.585 (log)): 102.311 and 100.47
HDAC8 dose-response data (relative enzyme activity), Fig. 6 + S. Fig. 10 (HDAC8; Inhibitor conc [M] -4.30103): 1.362 and 1.423
HDAC8 dose-response data (relative enzyme activity), Fig. 6 + S. Fig. 10 (HDAC8; Inhibitor conc [M] -5): 4.393 and 4.0005
HDAC8 dose-response data (relative enzyme activity), Fig. 6 + S. Fig. 10 (HDAC8; Inhibitor conc [M] -5.69897): 9.7232 and 9.03
HDAC8 dose-response data (relative enzyme activity), Fig. 6 + S. Fig. 10 (HDAC8; Inhibitor conc [M] -6.39794): 13.9289 and 13.185
EC50 (HDAC1 [4]): > 25.1 nM
